Measured values taken from US20260258035A1, “FIVE-MEMBERED AND SIX-MEMBERED NITROGEN-CONTAINING COMPOUND, AND INTERMEDIATE, PREPARATION METHOD AND USE THEREOF” (HANGZHOU SYNRX THERAPEUTICS BIOMEDICAL TECHNOLOGY CO., LTD., priority 2022, published 2026).
Read-outs that look alike come from different tables or passages of the source.

Experiments:
PARG = PARG (Homo sapiens, UniProt Q86W56); test: Biochemical assay (PARG, TFMU-ADPr substrate)
HCC1806 = test: Cell viability assay (CellTiter-Glo); assay type: cell-based, Human
[1] = 4 nM PARG, 66.2 uM TFMU-ADPr, 3 min at room temperature
[2] = Homo sapiens, HCC1806, 168 h, HCC1806, 7 days, CellTiter-Glo, read-out: IC50 (nM) in cell viability assay

Chain of PARG (Q86W56 whole entry): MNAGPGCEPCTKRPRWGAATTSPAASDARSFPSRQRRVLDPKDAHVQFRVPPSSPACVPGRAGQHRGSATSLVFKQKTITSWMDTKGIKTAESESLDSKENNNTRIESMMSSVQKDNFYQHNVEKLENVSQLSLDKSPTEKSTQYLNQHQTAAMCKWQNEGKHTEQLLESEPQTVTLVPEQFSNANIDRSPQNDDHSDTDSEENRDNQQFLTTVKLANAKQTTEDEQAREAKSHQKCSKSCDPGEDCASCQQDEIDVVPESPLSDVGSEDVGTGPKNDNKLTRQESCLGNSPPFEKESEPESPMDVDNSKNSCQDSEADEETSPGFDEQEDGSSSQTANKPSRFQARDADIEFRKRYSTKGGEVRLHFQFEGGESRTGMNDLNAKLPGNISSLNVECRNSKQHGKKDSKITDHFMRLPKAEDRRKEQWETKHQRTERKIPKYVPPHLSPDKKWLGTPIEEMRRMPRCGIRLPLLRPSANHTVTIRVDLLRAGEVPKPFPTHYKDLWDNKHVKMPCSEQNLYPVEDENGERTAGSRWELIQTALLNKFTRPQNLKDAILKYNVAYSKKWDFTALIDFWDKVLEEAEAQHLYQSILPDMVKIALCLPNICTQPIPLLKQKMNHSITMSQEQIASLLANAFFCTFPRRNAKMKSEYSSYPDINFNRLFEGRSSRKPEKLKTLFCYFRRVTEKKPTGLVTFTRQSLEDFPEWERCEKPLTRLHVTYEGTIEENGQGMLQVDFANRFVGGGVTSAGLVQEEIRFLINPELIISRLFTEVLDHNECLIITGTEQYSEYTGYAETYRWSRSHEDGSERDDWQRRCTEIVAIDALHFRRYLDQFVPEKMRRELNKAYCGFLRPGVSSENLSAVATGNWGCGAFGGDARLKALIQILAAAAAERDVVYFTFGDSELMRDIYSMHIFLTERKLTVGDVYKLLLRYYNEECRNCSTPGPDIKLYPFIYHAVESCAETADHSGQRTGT

| SMILES | IC50 (PARG; [1]) [nM] | IC50 (PARG; PARG, TFMU-ADPr substrate) [nM] | IC50 (HCC1806; [2]) [nM] | other results |
| --- | --- | --- | --- | --- |
| N#CC1(NS(=O)(=O)c2ccc3c(C4=CCC5(CNC5)C4)nc(-c4nnc(C(F)F)s4)n3c2)CC1 [Example 22, N-(1-cyanocyclopropyl)-3-(5-(difluoromethyl)-1,3,4-thiadiazol-2-yl)-1-(2-azaspiro[3.4]oct-6-en-6-yl)imidazo[1,5-a]pyridine-6-sulfonamide] | < 100 | 5.17 | – | IC50 (HCC1806; Homo sapiens, HCC1806, 168 h, read-out: IC50 (nM) in cell viability assay, HCC1806, 7 days, CellTiter-Glo): > 30000 nM; IC50 (HCC1806; read-out: IC50 (nM) in cell viability assay, HCC1806, 7 days, CellTiter-Glo): 30000 nM |
| N#CC1(NS(=O)(=O)c2cc(-c3ccc(OC(F)(F)F)cc3)c3cnc(-c4nnc(C(F)F)s4)n3c2)CC1 [Example 141, N-(1-cyanocyclopropyl)-3-(5-(difluoromethyl)-1,3,4-thiadiazol-2-yl)-8-(4-(trifluoromethoxy)phenyl)imidazo[1,5-a]pyridine-6-sulfonamide] | 100 to 500 | 280 | – | – |
| N#CC1(NS(=O)(=O)c2cc(NC3CCC(OC(F)(F)F)C3)c3cnc(-c4nnc(C(F)F)s4)n3c2)CC1 (stereo not drawn) [Example 151, N-(1-cyanocyclopropyl)-3-(5-(difluoromethyl)-1,3,4-thiadiazol-2-yl)-8-((3-(trifluoromethoxy)cyclopentyl)amino)imidazo[1,5-a]pyridine-6-sulfonamide] | 100 to 500 | 178 | – | – |
| O=S(=O)(NC1CC1)c1cc(N2Cc3c[nH]nc3C2)c2cnc(-c3nnc(C(F)(F)F)s3)n2c1 [Example 247, N-cyclopropyl-8-(2,6-dihydropyrrolo[3,4-c]pyrazol-5(4H)-yl)-3-(5-(trifluoromethyl)-1,3,4-thiadiazol-2-yl)imidazo[1,5-a]pyridine-6-sulfonamide] | – | – | 27200 | – |
| N#CC1(NS(=O)(=O)c2cc(N3CCCC(N)C3)c3cnc(-c4nnc(C(F)(F)F)s4)n3c2)CC1 (stereo not drawn) [Example 262, 8-(3-aminopiperidin-1-yl)-N-(1-cyanocyclopropyl)-3-(5-(trifluoromethyl)-1,3,4-thiadiazol-2-yl)imidazo[1,5-a]pyridine-6-sulfonamide] | – | – | 2000 | – |
| N#CC1(NS(=O)(=O)c2cc(N3CCC(N)CC3)c3cnc(-c4nnc(C(F)(F)F)s4)n3c2)CC1 [Example 263, 8-(4-aminopiperidin-1-yl)-N-(1-cyanocyclopropyl)-3-(5-(trifluoromethyl)-1,3,4-thiadiazol-2-yl)imidazo[1,5-a]pyridine-6-sulfonamide] | – | – | 4500 | – |
| CC(C)C(=O)NC1CCCN(c2cc(S(=O)(=O)NC3(C#N)CC3)cn3c(-c4nnc(C(F)(F)F)s4)ncc23)C1 (stereo not drawn) [Example 267, N-(1-(6-(N-(1-cyanocyclopropyl)sulfamoyl)-3-(5-(trifluoromethyl)-1,3,4-thiadiazol-2-yl)imidazo[1,5-a]pyridin-8-yl)piperidin-3-yl)isobutyramide] | – | – | 1500 | – |
| N#CC1(NS(=O)(=O)c2cc(N3CCN(C(=O)C4CNCCN4)CC3)c3cnc(-c4nnc(C(F)(F)F)s4)n3c2)CC1 (stereo not drawn) [Example 280, N-(1-cyanocyclopropyl)-8-(4-(piperazine-2-carbonyl)piperazin-1-yl)-3-(5-(trifluoromethyl)-1,3,4-thiadiazol-2-yl)imidazo[1,5-a]pyridine-6-sulfonamide] | – | 45.7 | – | – |
| N#CC1(NS(=O)(=O)c2cc(C#Cc3cncs3)c3cnc(-c4nnc(C(F)F)s4)n3c2)CC1 [Example 374, N-(1-cyanocyclopropyl)-3-(5-(difluoromethyl)-1,3,4-thiadiazol-2-yl)-8-(thiazol-5-ylethynyl)imidazo[1,5-a]pyridine-6-sulfonamide] | – | – | 2320 | – |
| N#CC1(NS(=O)(=O)c2cc(C#Cc3c[nH]cn3)c3cnc(-c4nnc(C(F)F)s4)n3c2)CC1 [Example 376, 8-((1H-imidazol-4-yl)ethynyl)-N-(1-cyanocyclopropyl)-3-(5-(difluoromethyl)-1,3,4-thiadiazol-2-yl)imidazo[1,5-a]pyridine-6-sulfonamide] | – | – | 30000 | – |

Second part, led by results:

| IC50 (PARG; [1]) [nM] | IC50 (PARG; PARG, TFMU-ADPr substrate) [nM] | IC50 (HCC1806; [2]) [nM] | SMILES | other results |
| --- | --- | --- | --- | --- |
| < 100 | 34.7 | – | N#CC1(NS(=O)(=O)c2cc(N3CCC(F)(CO)CC3)c3cnc(-c4nnc(C(F)F)s4)n3c2)CC1 [Example 90, N-(1-cyanocyclopropyl)-3-(5-(difluoromethyl)-1,3,4-thiadiazol-2-yl)-8-(4-fluoro-4-(hydroxymethyl)piperidin-1-yl)imidazo[1,5-a]pyridine-6-sulfonamide] | – |
| < 100 | 75.9 | – | C[C@@H]1CN(c2cc(S(=O)(=O)NC3(C#N)CC3)cn3c(-c4nnc(C(F)F)s4)ncc23)[C@@H](C)CN1C(=O)C1(C)CC1 [Example 93, N-(1-cyanocyclopropyl)-3-(5-(difluoromethyl)-1,3,4-thiadiazol-2-yl)-8-((2S,5R)-2,5-dimethyl-4-(1-methylcyclopropane-1-carbonyl)piperazin-1-yl)imidazo[1,5-a]pyridine-6-sulfonamide] | – |
| < 100 | 100 | – | CC1(C(=O)N2CCN(c3cc(S(=O)(=O)NC4(C#N)CC4)cn4c(-c5nnc(C(F)F)s5)ncc34)CC2(C)C)CC1 [Example 95, N-(1-cyanocyclopropyl)-3-(5-(difluoromethyl)-1,3,4-thiadiazol-2-yl)-8-(3,3-dimethyl-4-(1-methylcyclopropane-1-carbonyl)piperazin-1-yl)imidazo[1,5-a]pyridine-6-sulfonamide] | – |
| – | – | > 30000 | CC(C)C(=O)N1CCN(c2cc(S(=O)(=O)NC3(C#N)CC3)cc3c(-c4nnc(C(F)F)s4)nc(Cl)n23)CC1 [Example 98, 3-chloro-N-(1-cyanocyclopropyl)-1-(5-(difluoromethyl)-1,3,4-thiadiazol-2-yl)-5-(4-isobutyrylpiperazin-1-yl)imidazo[1,5-a]pyridine-7-sulfonamide] | – |
| < 100 | 50 | – | CC1(O)CCN(c2cc(S(=O)(=O)NC3(C)CC3)cn3c(-c4nnc(C(F)F)s4)nnc23)CC1 [Example 116, 3-(5-(difluoromethyl)-1,3,4-thiadiazol-2-yl)-8-(4-hydroxy-4-methylpiperidin-1-yl)-N-(1-methylcyclopropyl)-[1,2,4]triazolo[4,3-a]pyridine-6-sulfonamide] | – |
| < 100 | 72.4 | – | C[C@@H]1CN(c2cc(S(=O)(=O)NC3CC3)cn3c(-c4nnc(C(F)F)s4)nnc23)CCN1C(=O)C1(C)CC1 [Example 118, (R)-N-cyclopropyl-3-(5-(difluoromethyl)-1,3,4-thiadiazol-2-yl)-8-(3-methyl-4-(1-methylcyclopropane-1-carbonyl)piperazin-1-yl)-[1,2,4]triazolo[4,3-a]pyridine-6-sulfonamide] | – |
| – | 13.2 | – | C[C@H]1CN(c2cc(S(=O)(=O)NC3(C)COC3)cn3c(-c4nnc(C(F)F)s4)nc(Cl)c23)C[C@H](CO)O1 [Example 133, 1-chloro-3-(5-(difluoromethyl)-1,3,4-thiadiazol-2-yl)-8-((2R,6S)-2-(hydroxymethyl)-6-methylmorpholino)-N-(3-methyloxetan-3-yl)imidazo[1,5-a]pyridine-6-sulfonamide] | – |
| – | 69.2 | – | C[C@H]1CN(c2cc(S(=O)(=O)NC3(C)COC3)cn3c(-c4nnc(C(F)(F)F)s4)nc(Cl)c23)C[C@H](C)O1 [Example 134, 1-chloro-8-((2S,6S)-2,6-dimethylmorpholino)-N-(3-methyloxetan-3-yl)-3-(5-(trifluoromethyl)-1,3,4-thiadiazol-2-yl)imidazo[1,5-a]pyridine-6-sulfonamide] | – |
| < 100 | 26.2 | – | N#CC1(NS(=O)(=O)c2cc(-c3ccc4c(c3)CCO4)c3cnc(-c4nnc(C(F)F)s4)n3c2)CC1 [Example 140, N-(1-cyanocyclopropyl)-3-(5-(difluoromethyl)-1,3,4-thiadiazol-2-yl)-8-(2,3-dihydrobenzofuran-5-yl)imidazo[1,5-a]pyridine-6-sulfonamide] | – |
| < 100 | 12 | – | Cc1c(-c2cc(S(=O)(=O)NC3(C#N)CC3)cn3c(-c4nnc(C(F)F)s4)ncc23)cnn1C(C)C [Example 143, N-(1-cyanocyclopropyl)-3-(5-(difluoromethyl)-1,3,4-thiadiazol-2-yl)-8-(1-isopropyl-5-methyl-1H-pyrazol-4-yl)imidazo[1,5-a]pyridine-6-sulfonamide] | – |
| 100 to 500 | 316 | – | N#CC1(NS(=O)(=O)c2cc(N3CCC(CO)(C(F)(F)F)CC3)c3cnc(-c4nnc(C(F)F)s4)n3c2)CC1 [Example 145, N-(1-cyanocyclopropyl)-3-(5-(difluoromethyl)-1,3,4-thiadiazol-2-yl)-8-(4-(hydroxymethyl)-4-(trifluoromethyl)piperidin-1-yl)imidazo[1,5-a]pyridine-6-sulfonamide] | – |
| < 100 | 8.29 | – | CN1CC(Nc2cc(S(=O)(=O)NC3(C#N)CC3)cn3c(-c4nnc(C(F)F)s4)ncc23)C1 [Example 150, N-(1-cyanocyclopropyl)-3-(5-(difluoromethyl)-1,3,4-thiadiazol-2-yl)-8-((1-methylazetidin-3-yl)amino)imidazo[1,5-a]pyridine-6-sulfonamide] | – |
| – | 6.03 | – | C[C@@H]1CN(c2cc(S(=O)(=O)NC3(C#N)CC3)cn3c(-c4nnc(C(F)F)s4)ncc23)CCN1C(=O)C1CNC1 [Example 288, (R)-8-(4-(azetidine-3-carbonyl)-3-methylpiperazin-1-yl)-N-(1-cyanocyclopropyl)-3-(5-(difluoromethyl)-1,3,4-thiadiazol-2-yl)imidazo[1,5-a]pyridine-6-sulfonamide] | – |
| – | – | 855 | N#CC1(NS(=O)(=O)c2cc(C#CC3CCOC3)c3cnc(-c4nnc(C(F)F)s4)n3c2)CC1 (stereo not drawn) [Example 375, N-(1-cyanocyclopropyl)-3-(5-(difluoromethyl)-1,3,4-thiadiazol-2-yl)-8-((tetrahydrofuran-3-yl)ethynyl)imidazo[1,5-a]pyridine-6-sulfonamide] | – |
| – | – | 530 | C[C@H]1CN(c2cc(S(=O)(=O)NC3(C)COC3)cn3c(-c4nnc(C(F)F)s4)nc(Cl)c23)C[C@H](CO)O1 [Example 397, 1-chloro-3-(5-(difluoromethyl)-1,3,4-thiadiazol-2-yl)-8-((2R,6S)-2-(hydroxymethyl)-6-methylmorpholino)-N-(3-methyloxetan-3-yl)imidazo[1,5-a]pyridine-6-sulfonamide] | – |
